Assays:
[1] = tested on: SC-1; experiment: In vitro cytotoxicity, SC-1 (B cell Lymphoma); type: cell-based; conditions: Homo sapiens, SC-1, 72 h, read-out: Cytotoxicity IC50, SC-1
Summary of the method: (§1)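 CellTiter-Glo 2.0 luminescence after 72 h compound exposure, 37 °C, CO2. Cells at 100000 cells/mL, log phase, RPMI 1640 + 10% FBS; DERL-2: 20% FBS, 40 ng/mL IL-2. Final DMSO 0.2%.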

[2] = In vitro cytotoxicity, human peripheral blood mononuclear cells; type: cell-based; conditions: CellTiter-Glo 2.0, stimulated with PHA-M and IL-2, read-out: Cytotoxicity IC50, hPBMC
Method: (§2) All cells were cultivated in RPMI medium 1640 (IX). All media was supplemented with 10 μg/μl penicillin/streptomycin, 10% heat inactivated FBS, 0.1 mM Sodium Pyruvate, 1×MEM NEAA (ThermoFisher) and 1 mM HEPES. The DERL-2 cells had higher FBS (20%) and 40 ng/mL IL-2 was added. hPBMCs were thawed and allowed to acclimatise overnight and then stimulated with 10 μg/mL PHA-M and 40 ng/mL IL-2 for 4 hours before being exposed to test compounds. All cells, except for hPBMCs, were grown to reach log phase before being exposed to the test compounds.
(§3) Test compounds were dissolved in 100% DMSO and added to a 384 assay plate. Additional DMSO was added to maintain the same final DMSO concentration (0.2%) in all wells. 25 μL cell suspension with a concentration of 100000 cells/mL was added to each well. The cells were cultured in a CO2 incubator at 37° C. for 72 h. Plates were equilibrated to room temperature for 30 minutes before adding 20 μL CellTiter-Glo® 2.0 (Promega) reagent to all wells. The plate was then allowed to stabilize for 20 minutes before recording the luminescence (Em filter 700 nm) in an Envision plate reader.

[3] = tested on: SK-MM-1; experiment: In vitro cytotoxicity, SK-MM-1 (Plasma Cell Leukemia); type: cell-based; conditions: Homo sapiens, 72 h, read-out: Cytotoxicity IC50, SK-MM-1
Method: as §2, §3

[4] = tested on: OPM-2; experiment: In vitro cytotoxicity, OPM-2 (Multiple Myeloma); type: cell-based; conditions: Homo sapiens, OPM-2, 72 h, read-out: Cytotoxicity IC50, OPM-2
Method: as §2, §3

[5] = tested on: Toledo; experiment: In vitro cytotoxicity, Toledo (Diffuse Large B Cell Lymphoma); type: cell-based; conditions: Homo sapiens, 72 h, read-out: Cytotoxicity IC50, Toledo
Method: as §2, §3

[6] = tested on: RPMI-8226; experiment: In vitro cytotoxicity, RPMI-8226 (Multiple Myeloma, resistant); type: cell-based; conditions: Homo sapiens, RPMI-8226, 72 h, read-out: Cytotoxicity IC50, RPMI-8226
Summary of the method: as §1

[7] = tested on: MM.1S cells; experiment: DNA fragmentation, APO-BrdU TUNEL assay by flow cytometry; type: cell-based, human; conditions: 24 h; for Cells with DNA breaks (TUNEL positive cells): 0.6 μM; for Dose response effect on DNA damage (TUNEL): 0.006, 0.06, 0.6 or 6 μM
Method: Method: 1×10^6 MM.1S cells (CRL-2974, ATCC) were treated with Example compound 1 or Bendamustine at 0.006, 0.06, 0.6 or 6 μM for 24 h. After incubation, the cells were washed with PBS (10010-015, Gibco), fixed in Flow Cytometry Fixation Buffer (FC004, R&D Systems) for 10 min and stored in 70% ethanol at −20° C. overnight. The deoxythymidine analog (BrdUTP) was present in the experiment and served to label the DNA break sites. Next day, the cells were washed and stained using an APO-BrdU™ TUNEL Assay Kit, according to the manufacturer's protocol (A23210, Invitrogen), followed by the analysis using BD FACSCanto™ II. The percentage of TUNEL positive cells indicates the percentage of cells with fragmented DNA.

[8] = tested on: AMO-1; experiment: In vitro cytotoxicity, AMO-1 (Multiple Myeloma); type: cell-based; conditions: Homo sapiens, AMO1, 72 h, read-out: Cytotoxicity IC50, AMO-1
Method: as §2, §3

[9] = tested on: DOHH-2; experiment: In vitro cytotoxicity, DOHH-2 (B Cell Lymphoma); type: cell-based; conditions: Homo sapiens, DOHH-2, 72 h, read-out: Cytotoxicity IC50, DOHH-2
Method: as §2, §3

[10] = tested on: DERL-2; experiment: In vitro cytotoxicity, DERL-2 (T cell Lymphoma); type: cell-based; conditions: Homo sapiens, 72 h, read-out: Cytotoxicity IC50, DERL-2
Method: as §2, §3

[11] = tested on: EJM; experiment: In vitro cytotoxicity, EJM (Multiple Myeloma); type: cell-based; conditions: Homo sapiens, 72 h, read-out: Cytotoxicity IC50, EJM
Method: as §2, §3

[12] = tested on: HG-3; experiment: In vitro cytotoxicity, HG-3 (Chronic Lymphocytic Leukemia); type: cell-based; conditions: Homo sapiens, HG-3, 72 h, read-out: Cytotoxicity IC50, HG-3
Method: as §2, §3

[13] = In vitro cytotoxicity, BJ fibroblasts (normal cells); type: cell-based; conditions: human, CellTiter-Glo 2.0
Method: as §2, §3

[14] = tested on: DNA prepared from MM.1S cells (nuclear HPRT and mitochondrial DNA); experiment: Direct DNA damage, PCR amplification of treated DNA (HPRT and mtDNA primers); type: biochemical, human; conditions: 0.25 μM compound, 30 minutes, 37° C., 1 μg DNA
Summary of the method: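 Genomic DNA isolated from MM.1S cells, 1 μg treated with 0.25 μM compound for 30 min at 37 °C, DMSO as control. Long-range PCR on 20 ng treated DNA yielding 10.4 kb (HPRT) or 8.9 kb (mtDNA) fragments; damage assessed by loss of product on 1% agarose gel.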

[15] = tested on: SUP-T1; experiment: In vitro cytotoxicity, SUP-T1 (T cell Lymphoma); type: cell-based; conditions: Homo sapiens, SUP-T1, 72 h, read-out: Cytotoxicity IC50, SUP-T1
Method: as §2, §3

[16] = tested on: SU-DHL-8; experiment: In vitro cytotoxicity, SU-DHL-8 (B-cell non-Hodgkin Lymphoma); type: cell-based; conditions: Homo sapiens, SU-DHL-8, 72 h, read-out: Cytotoxicity IC50, SU-DHL-8
Method: as §2, §3

[17] = tested on: U937; experiment: In vitro cytotoxicity, U937 (Histiocytic Lymphoma); type: cell-based; conditions: Homo sapiens, U-937, 72 h, read-out: Cytotoxicity IC50, U937
Method: as §2, §3

SMILES	IC50 [1]	IC50 at 72 h [2]	IC50 [3]	IC50 [4]	IC50 [5]	IC50 [6]	Cells with DNA breaks (TUNEL positive cells) [7]	Dose response effect on DNA damage (TUNEL) [7]	IC50 [8]	IC50 [9]	IC50 [10]	IC50 [11]	IC50 [12]	IC50 at 72 h [13]	DNA damage on nuclear and mitochondrial DNA (PCR band) [14]	IC50 [15]	IC50 [16]	IC50 [17]
Cn1c(CCCC(=O)O)nc2cc(N(CCCl)CCCl)ccc21 [Bendamustine, bendamustine, reference compound]	25100 nM	15800 nM	73500 nM	81900 nM	12500 nM	111000 nM	that was not the case	no obvious effect	57000 nM	10700 nM	21100 nM	64600 nM	25800 nM	> 599000 nM	no or very minor effect on DNA damage	33500 nM	14300 nM	27100 nM
CCOC(=O)[C@H](CC(C)C)NC(=O)[C@@H](N)CCc1nc2cc(N(CCCl)CCCl)ccc2n1C [Example 1, Ethyl (2S)-2-[[(2S)-2-amino-4-[5-[bis(2-chloroethyl)amino]-1-methyl-benzimidazol-2-yl]butanoyl]amino]-4-methyl-pentanoate]	13.3 nM	5.4 nM	34.7 nM	173 nM	4.5 nM	90.6 nM	> 90%	induced DNA damage in a dose-dependent manner	49.7 nM	4.2 nM	6 nM	27.1 nM	25.7 nM	1070 nM	strong DNA damaging effect	12.7 nM	19.9 nM	9.8 nM

From patent US20240316059A1, “PEPTIDE DRUG CONJUGATES” (Oncopeptides AB, priority 2021, published 2024)
